Test results: patent US20200261470A1, “COMBINATION TREATMENT WITH ANTIBODY-DRUG CONJUGATES AND PARP INHIBITORS” (IMMUNOGEN, INC., priority 2016, published 2020)

Assays:
HEL-luc cells = experiment: Proliferation measured with WST-8 reagent, HEL-luc cells; assay type: cell-based, human; settings: for IC50: Homo sapiens, HELluc cell line, single agent, read-out: IC50 values for PARP inhibitors in AML cell lines
Protocol: (§1) Proliferation was measured following incubation with WST-8 reagent. Synergistic/additive effects were calculated using Compusyn software at varying drug concentrations. Flow cytometry for apoptosis, viability, DNA damage/repair, and cell cycle effects following combination versus single drug treatment were also performed.

HL60 cells = experiment: Proliferation measured with WST-8 reagent, HL60 cells; assay type: cell-based; settings: Homo sapiens, HL-60; HL60 cell line, single agent; read-out: IC50 values for PARP inhibitors in AML cell lines
Protocol: as §1

HEL cells = experiment: Cell death after DNA-damaging radiation exposure in the presence of olaparib; assay type: cell-based, human; settings: graded concentrations of olaparib; 0.5 Gy and 0.75 Gy radiation
[1] = system: human CD33+ AML (HEL-luciferase) xenografts; assay type: in vivo; settings: IMGN779 15 mcg/kg, olaparib 100 mg/kg, alone or combined
Protocol: In these experiments, stably transfected luciferase-positive human AML cells (HEL) characterized by high hCD33 expression levels were injected via tail vein into sublethally irradiated 6-8 week old SCID mice. […] In vivo systemic leukemia disease burden was evaluated weekly by small animal bioluminescent imaging. Toxicity was determined by clinical examination and weight measurements throughout the experiment. Overall study endpoints were (a) time to overall morbidity/mortality and/or (b) change in leukemia disease burden as compared with vehicle-treated mice or mice treated with single agent therapy. […] Simple stastical analyses will be performed utilizing the Stat Prism statistical software.

[2] = system: Human CD33+ AML cell lines (HEL, MV4-11, and HL60); experiment: Proliferation by WST-8 reagent with Compusyn synergy analysis, CD33+ AML cell lines; settings: single agent, all CD33+ human AML cell lines tested
Protocol: Proliferation was measured by WST-8 reagent. Synergistic/additive effects were calculated using Compusyn software. Flow cytometry was performed to assess apoptosis, cell viability, and cell cycle effects.

Row | Structure (SMILES) | IC50 (HEL-luc cells) [µM] | IC50 (HL60 cells) [µM] | cell death after DNA-damaging radiation exposure (HEL cells) | median overall survival from inoculation [1] [days] | growth inhibition in vitro [2] | relative potency among PARP inhibitors (HEL-luc cells; HEL-luc and HL60 cell lines) | surviving fraction of cells (HEL-luc cells; PARP inhibitor 0.8 μM, IMGN779 800 pM, compared with olaparib and niraparib)
1 | NC(=O)c1cccc2cn(-c3ccc([C@@H]4CCCNC4)cc3)nc12 [Niraparib, niraparib] | 7.3 | 2.5 | – | – | – | – | –
2 | O=C(c1cc(Cc2n[nH]c(=O)c3ccccc23)ccc1F)N1CCN(C(=O)C2CC2)CC1 [Olaparib, olaparib] | 7.4 | 8.9 | correlation in increase cell death and apoptosis with the increase in concentration of olaparib | 33.7 | dose-dependent grown inhibition | – | –
3 | CNCc1ccc(-c2[nH]c3cc(F)cc4c3c2CCNC4=O)cc1 [Rucaparib, rucaparib] | 39 | 75 | – | – | – | – | –
4 | Cn1ncnc1[C@H]1c2n[nH]c(=O)c3cc(F)cc(c23)N[C@@H]1c1ccc(F)cc1 [Talazoparib, talazoparib] | 0.4 | 0.2 | – | – | – | most potent PARP inhibitor | greatest decrease in surviving fraction of cells
5 | C[C@]1(c2nc3c(C(N)=O)cccc3[nH]2)CCCN1 [Vellparib, veliparib] | > 100 | 88 | – | – | – | – | –
